# How the values were obtained:
# [1] = tested on: p-IKKα levels in L363 (NIK translocated multiple myeloma) cells; test: Effect of compounds on p-IKKα levels in L363 cells (AlphaLISA SureFire Ultra); type: cell-based; settings: Homo sapiens, L-363; L363 cells, BAFF stimulated, MG132, 6 h; average of values; read-out: Assay 2 IC50
# Method: Biological Assay 2: Effect of Compounds on p-IKKα Levels in L363 (NIK Translocated Multiple Myeloma) Cells
# All compounds tested were dissolved and serially diluted in DMSO, 1:3 dilution for 11 points in an Echo compatible plate. 100% DMSO is added to columns 12 and 24 of the plate to serve as high and low signal controls. This compound plate was used to spot 20 nl of compound or DMSO into a Greiner 384 well TC plate (781080). Final DMSO concentration was […] (v/v) in cell assays. Human L363 cells (ATCC) were cultured in RPMI 1640 medium supplemented with GlutaMax, non-essential amino acids, sodium pyruvate and 10% fetal bovine serum. Cells were routinely maintained at densities of 0.2×10^6 cells per ml −2×10^6 cells per ml at 37° C. in a humidified 5% CO2 atmosphere incubator. Cells were passaged twice a week splitting back to obtain the low density. The day before the assay, cells were washed twice in HBSS, resuspended in DMEM+0.5% IgG and protease free BSA (Jackson Immuno Research Laboratories), +/−250 ng/ml recombinant human B-cell activating factor (BAFF/BLyS/TNFSF13B) and incubated overnight at 37° C. in a humidified 5% CO2 atmosphere (bulk stimulation with or without BAFF). The next day, cell concentration was adjusted to 1×10^7 cells/ml in DMEM+/−250 ng/ml BAFF+/−10 uM MG132 and plated at 10 ul/well into compound or DMSO spotted 384 well TC plates. Seeded cells were incubated at 37° C. in a humidified 5% CO2 atmosphere for 6 h. After 6 h, plates were removed from the incubator and cell lysis was achieved by the addition of 2.5 μl 5× lysis buffer containing protease and phosphatase inhibitors, followed by shaking on a plate shaker at room temperature for 15 min. At the end of this incubation, lysed cells were sequentially treated and incubated with acceptor and donor bead mixes according to the manufacturer's protocol for a 1 plate/2-incubation suspension cell assay (AlphaLISA SureFire Ultra p-IKKα (Ser 176/180) Assay Kit (Perkin ElmeR). Plates were read using an EnVision® Multilabel Plate Reader (Perkin ElmeR). Within an experiment, a concentration response curve for each compound was run in duplicate. Signal obtained in the test wells was normalized using high signal (BAFF stimulated cells, DMSO, MG132) and low signal (unstimulated cells, DMSO) controls. To determine the IC50, a sigmoidal curve was fitted to the plot of % inhibition versus Log10 compound concentration.
# [2] = target: Recombinant Human NF-Kappab-Inducing Kinase (NIK/MAP3K14) (Homo sapiens, UniProt Q99558); test: Inhibition of auto-phosphorylation of recombinant human NIK/MAP3K14 (AlphaScreen); type: biochemical; settings: NIK/MAP3K14 auto-phosphorylation, 5 microM ATP, 1 nM enzyme, 2 h at 25° C.; average of values; read-out: Assay 1 IC50
# Chain of Recombinant Human NF-Kappab-Inducing Kinase (NIK/MAP3K14) (Q99558 whole entry): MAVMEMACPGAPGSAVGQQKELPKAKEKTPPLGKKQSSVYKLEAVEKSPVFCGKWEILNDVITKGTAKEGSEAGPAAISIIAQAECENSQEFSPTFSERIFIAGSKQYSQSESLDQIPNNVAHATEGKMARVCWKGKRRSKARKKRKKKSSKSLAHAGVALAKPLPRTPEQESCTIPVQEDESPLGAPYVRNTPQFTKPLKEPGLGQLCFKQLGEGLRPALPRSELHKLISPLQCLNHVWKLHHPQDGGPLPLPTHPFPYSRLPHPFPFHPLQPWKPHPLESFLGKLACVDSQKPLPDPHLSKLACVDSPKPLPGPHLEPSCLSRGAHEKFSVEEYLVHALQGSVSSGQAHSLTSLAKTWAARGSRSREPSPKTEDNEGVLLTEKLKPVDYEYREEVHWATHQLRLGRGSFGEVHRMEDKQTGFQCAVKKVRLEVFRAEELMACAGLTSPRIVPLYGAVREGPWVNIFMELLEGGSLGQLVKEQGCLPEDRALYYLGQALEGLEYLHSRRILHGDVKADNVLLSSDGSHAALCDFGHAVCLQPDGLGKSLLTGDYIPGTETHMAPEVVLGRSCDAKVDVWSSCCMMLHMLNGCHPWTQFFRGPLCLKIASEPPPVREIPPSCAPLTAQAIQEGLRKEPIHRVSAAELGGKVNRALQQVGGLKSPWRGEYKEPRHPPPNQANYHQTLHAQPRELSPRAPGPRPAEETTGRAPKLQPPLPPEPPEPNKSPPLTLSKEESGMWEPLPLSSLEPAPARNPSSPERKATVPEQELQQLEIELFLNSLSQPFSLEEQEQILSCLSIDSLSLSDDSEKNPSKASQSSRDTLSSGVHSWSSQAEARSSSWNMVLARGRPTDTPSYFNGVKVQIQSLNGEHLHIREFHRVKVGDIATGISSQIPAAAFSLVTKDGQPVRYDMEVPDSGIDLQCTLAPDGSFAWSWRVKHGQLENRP
# Method: Biological Assay 1: Inhibition of Auto-Phosphorylation of Recombinant Human NF-Kappab-Inducing Kinase (NIK/MAP3K14) Activity (AlphaScreen®)
# NIK/MAP3K14 auto-phosphorylation activity was measured using the AlphaScreen® ((αscreen) format (Perkin ElmeR). All compounds tested were dissolved in dimethyl sulfoxide (DMSO) and further dilutions were made in assay buffer. Final DMSO concentration was 0.7% (v/v) in assays. Assay buffer was 50 mM Tris pH 7.5 containing 1 mM EGTA (ethylene glycol tetraacetic acid), 1 mM DTT (dithiothreitol), 0.1 mM Na3VO4, 5 mM MgCl2, 0.01% Tween® 20. Assays were carried out in 384 well Proxiplates (Perkin ElmeR). Incubations consisted of compound, 5 microM Adenosine-5′-triphosphate (ATP), and 1 nM NIK/MAP3K14. Incubations were initiated by addition of GST-tagged NIK/MAP3K14 enzyme, carried out for 2 h at 25° C. and terminated by addition of stop buffer containing anti-phospho-IKK Ser176/180 antibody. Protein A Acceptor and Glutathione-donor beads were added before reading using an EnVision® Multilabel Plate Reader (Perkin ElmeR). Signal obtained in the wells was normalized using high (full enzyme activity, 0.7% DMSO) and low controls (no enzyme activity, 0.7% DMSO, no ATP). IC50's were determined by fitting a sigmoidal curve to % inhibition of control versus Log10 compound concentration.
Structure (SMILES),IC50 [1] [nM],IC50 [2] [nM]
"CN1CC[C@@](O)(c2cc(-c3cccc(-n4nc(C(N)=O)c5cc(F)ccc54)c3)no2)C1=O [Example 101, (R)-5-Fluoro-1-(3-(5-(3-hydroxy-1-methyl-2-oxopyrrolidin-3-yl)isoxazol-3-yl)phenyl)-1H-indazole-3-carboxamide]",100 to 500,< 100
"CN1CCC(O)(c2cc(-c3cccc(-c4c[nH]c5ncccc45)c3)on2)C1=O (racemic) [Example 9, (R,S)-3-(5-(3-(1H-Pyrrolo[2,3-b]pyridin-3-yl)phenyl)isoxazol-3-yl)-3-hydroxy-1-methylpyrrolidin-2-one]",> 501,100 to 500
"CN1CC[C@@](O)(c2cc([C@@H]3CCCN(c4ccc5ncnc(N)c5n4)C3)no2)C1=O (single isomer, unassigned) [Example 202]",> 501,< 100
"CN1CC(F)(F)[C@@](O)(c2cc(-c3ccc(F)c(-c4nc(C(N)=O)c5[nH]ccc5n4)c3)no2)C1=O [Example 140, (R)-2-(5-(5-(4,4-Difluoro-3-hydroxy-1-methyl-2-oxopyrrolidin-3-yl)isoxazol-3-yl)-2-fluorophenyl)-5H-pyrrolo[3,2-d]pyrimidine-4-carboxamide]",< 100,< 100
"[2H]c1nc(N)c2nc(-c3cccc(-c4cnc([C@@]5(O)CCN(C)C5=O)s4)c3)ccc2n1 (single isomer, unassigned) [Example 32]",> 501,< 100
"COc1cc2c(cc1-c1cccc(-c3cc([C@]4(O)CCN(C)C4=O)on3)c1)COC2 [Example 81, (R)-3-Hydroxy-3-(3-(3-(6-methoxy-1,3-dihydroisobenzofuran-5-yl)phenyl)isoxazol-5-yl)-1-methylpyrrolidin-2-one]",> 501,> 501
"CN1CC[C@@](O)(c2cc(-c3cccc(-c4cc5c[nH]nc5cn4)c3)no2)C1=O [Example 75, (R)-3-(3-(3-(2H-pyrazolo[3,4-c]pyridin-5-yl)phenyl)isoxazol-5-yl)-3-hydroxy-1-methylpyrrolidin-2-one]",> 501,100 to 500
"CN1CC[C@@](O)(c2cc(-c3cccc(-c4ncc(N)c(C(=O)N[C@@H]5CCOC5)n4)c3)no2)C1=O [Example 128, 5-Amino-2-(3-(5-((R)-3-hydroxy-1-methyl-2-oxopyrrolidin-3-yl)isoxazol-3-yl)phenyl)-N—((R)-tetrahydrofuran-3-yl)pyrimidine-4-carboxamide]",> 501,< 100
"CN1CC[C@@](O)(c2cc([C@H]3CCCN(c4ccc5ncnc(N)c5n4)C3)no2)C1=O (single isomer, unassigned) [Example 203]",> 501,< 100
"CN1CC[C@@](O)(c2cc(-c3cccc(-c4nc(C(N)=O)c(C5CCC5)s4)c3)no2)C1=O [Example 221, (R)-5-Cyclobutyl-2-(3-(5-(3-hydroxy-1-methyl-2-oxopyrrolidin-3-yl)isoxazol-3-yl)phenyl)thiazole-4-carboxamide]",> 501,< 100
"COc1cc(-c2cccc(-c3cc([C@]4(O)CCN(C)C4=O)on3)c2)nc(C(N)=O)c1N [Example 46, (R)-3-Amino-6-(3-(5-(3-hydroxy-1-methyl-2-oxopyrrolidin-3-yl)isoxazol-3-yl)phenyl)-4-methoxypicolinamide]",< 100,< 100
"CNc1sc(-c2cccc(-c3cc([C@]4(O)CCN(C)C4=O)on3)c2)nc1C(N)=O [Example 209, (R)-2-(3-(5-(3-Hydroxy-1-methyl-2-oxopyrrolidin-3-yl)isoxazol-3-yl)phenyl)-5-(methylamino)thiazole-4-carboxamide]",< 100,< 100
"CN1CC[C@@](O)(c2cc(-c3cccc(-c4cc(N)c5nc[nH]c(=O)c5n4)c3)no2)C1=O [Example 96, (R)-8-Amino-6-(3-(5-(3-hydroxy-1-methyl-2-oxopyrrolidin-3-yl)isoxazol-3-yl)phenyl)pyrido[3,2-d]pyrimidin-4(3H)-one]",> 501,< 100
"[2H]c1nc(N)c2nc(-c3cccc(-c4cc([C@]5(O)CCN(C)C5=O)no4)c3)ccc2n1 [Example 16, (R)-3-(5-(3-(4-Aminopyrido[3,2-d]pyrimidin-6-yl-2-d)phenyl)isoxazol-3-yl)-3-hydroxy-1-methylpyrrolidin-2-one]",100 to 500,< 100
"CN1CC[C@@](O)(c2cc(-c3cccc(-c4ccc5cnn(C)c5n4)c3)no2)C1=O [Example 78, (R)-3-Hydroxy-1-methyl-3-(3-(3-(1-methyl-1H-pyrazolo[3,4-b]pyridin-6-yl)phenyl)isoxazol-5-yl)pyrrolidin-2-one]",> 501,100 to 500
"Cc1ncnc2ccc(-c3cccc(-c4cc([C@]5(O)CCN(C)C5=O)on4)c3)nc12 [Example 25, (R)-3-Hydroxy-1-methyl-3-(3-(3-(4-methylpyrido[3,2-d]pyrimidin-6-yl)phenyl)isoxazol-5-yl)pyrrolidin-2-one]",> 501,100 to 500
"CN1CC[C@@](O)(c2cc(-c3cccc(-c4cc(-c5ccnn5C)cc(C(N)=O)n4)c3)no2)C1=O [Example 182, (R)-6-(3-(5-(3-Hydroxy-1-methyl-2-oxopyrrolidin-3-yl)isoxazol-3-yl)phenyl)-4-(1-methyl-1H-pyrazol-5-yl)picolinamide]",> 501,< 100
"CN1CC[C@@](O)(c2cc(-c3cc(F)cc(-c4cc(C5CC5)c(N)c(C(N)=O)n4)c3)no2)C1=O [Example 243, (R)-3-Amino-4-cyclopropyl-6-(3-fluoro-5-(5-(3-hydroxy-1-methyl-2-oxopyrrolidin-3-yl)isoxazol-3-yl)phenyl)picolinamide]",< 100,< 100
"CN1CC[C@](O)(c2ncc(-c3cccc(-c4cccc(C(N)=O)n4)c3)s2)C1=O (single isomer, unassigned) [Example 28]",> 501,100 to 500
"CN1CC[C@@](O)(c2cc(-c3cccc(-c4nc(C(N)=O)c(C5CC5)s4)c3)no2)C1=O [Example 208, (R)-5-Cyclopropyl-2-(3-(5-(3-hydroxy-1-methyl-2-oxopyrrolidin-3-yl)isoxazol-3-yl)phenyl)thiazole-4-carboxamide]",100 to 500,< 100
"CN1CC[C@@](O)(c2cc(-c3cccc(-c4ncc(NC5CC5)c(C(N)=O)n4)c3)no2)C1=O [Example 111, (R)-5-(Cyclopropylamino)-2-(3-(5-(3-hydroxy-1-methyl-2-oxopyrrolidin-3-yl)isoxazol-3-yl)phenyl)pyrimidine-4-carboxamide]",< 100,< 100
"Cc1nc2cc(-c3cccc(-c4cc([C@]5(O)CCN(C)C5=O)on4)c3)ccc2o1 [Example 63, (R)-3-Hydroxy-1-methyl-3-(3-(3-(2-methylbenzo[d]oxazol-5-yl)phenyl)isoxazol-5-yl)pyrrolidin-2-one]",> 501,> 501
"CN1CC[C@@](O)(c2cc(-c3cccc(-n4nc(C(=O)O)c5c4CCCC5)c3)no2)C1=O [Example 95, (R)-1-(3-(5-(3-Hydroxy-1-methyl-2-oxopyrrolidin-3-yl)isoxazol-3-yl)phenyl)-4,5,6,7-tetrahydro-1H-indazole-3-carboxylic acid]",> 501,> 501
